Where two headings read alike, the source gives them in different places. No end group written: not given here.
Legend:
[1] = tested on: EIAV (MA-1 strain) in equine dermal cell line ED; experiment: EIAV infectivity, immunostaining of antigen-expressing cells at 40 h; format: cell-based, equine infectious anemia virus; conditions: for effect on the EIAV virus titer: theta defensins
[2] = tested on: HIV (pNL4-3 strain) in HeLa 37 cells; format: cell-based; conditions: for anti-viral activity against HIV, numbers of HIV antigen positive cells (qualitative): theta defensins preincubated 15-30 minutes with HIV, HeLa cells, 40 h; for anti-retroviral activity of carboxy-terminal peptides (qualitative): HIV, 8 μg/ml, 40 h (FIG. 3B), preliminary studies
herpes simplex 1 (HSV-1) = experiment: HSV-1 plaque formation inhibition, virus preincubated with peptide; format: cell-based, herpes simplex virus 1
herpes simplex 2 (HSV-2) = experiment: HSV-2 plaque formation inhibition, virus preincubated with peptide; format: cell-based, herpes simplex virus 2
vaccinia virus = experiment: Vaccinia virus replication; format: cell-based; conditions: similar concentrations
[3] = % helicity (circular dichroism); format: physicochemical; conditions: for % helicity in Phos. Buffer: phosphate buffer; for % helicity in phosphate buffer + 40% TFE: phosphate buffer + 40% TFE (parenthetical value)
[4] = mice, lung instillation of 100 μg
[5] = Systemic toxicity in mice; conditions: systemic dose of 5 mg/kg
cytomegalovirus (CMV) = experiment: CMV plaque formation / cytopathology in primary human fibroblasts; format: cell-based; conditions: for CMV plaque formation: virus preincubated 1 h at 37° C., MOI approx. 5, 14 days post infection
[6] = tested on: adenovirus, a non-enveloped virus; experiment: Adenovirus infectivity; format: cell-based; conditions: similar concentrations (6-8 μg/ml); data not shown
EIAV (MA-1) = experiment: Time course of Ov-1 addition against EIAV, antigen immunostaining of monolayers; format: cell-based, equine infectious anemia virus; conditions: 10 μg/ml
Description: Studies with EIAV investigating the mode of action of the Ov class antivirals indicate that the peptides are acting early within the viral life cycle, perhaps acting on the viral particle itself. Ten μg/ml of Ov-1 was added to virus stocks of MA-1 either before, at the time of infection or various times following infection. Virus and peptide was then removed from the media 48 h post infection and the infected cultures were maintained for an additional 5 days to allow spread of any virus that is present within the culture. Monolayers were then immunostained for EIAV antigen expression.

[7] = tested on: herpes viruses and retroviruses
[8] = tested on: primary human fibroblasts
[9] = mouse, in vivo, 5 mg/kg

GFCRCLCRRGVCRCICTR [RTD-1, rhesus monkey theta defensin]
effect on the EIAV virus titer [1]: no effect

GICRCICGRGICRCICGR [HTD-1, synthetic peptide specified from human pseudogene, human theta defensin 1]
effect on the EIAV virus titer [1]: no effect
enhancement of IC50 by circularization ([2]; oxidized, circularized versus oxidized form): about 10 fold
anti-viral activity against HIV, numbers of HIV antigen positive cells (qualitative) [2]: greatest anti-viral activity
anti-viral activity against HIV, numbers of HIV antigen positive cells (qualitative) ([2]; listed as human theta defensin-1): most effective

GVCRCLCRRGVCRCLCRR [RTD-3, rhesus monkey theta defensin]
anti-viral activity against HIV, numbers of HIV antigen positive cells (qualitative) [2]: greatest anti-viral activity
anti-viral activity against HIV, numbers of HIV antigen positive cells (qualitative) ([2]; listed as rhesus theta defensin-3): most effective

HIIKKYGPTILRIIRIIG-NH2 [Ov-6, 18 carboxyl-terminal amino acids of Ov-1]
anti-retroviral activity of carboxy-terminal peptides (qualitative) [2]: did not have appreciable anti-viral activity

IHIIKKYGPTILRIIRIIG-NH2 [Ov-5, carboxy-terminal 19-mer of Ov-1]
anti-retroviral activity of carboxy-terminal peptides (qualitative) [2]: have anti-retroviral activity

ISRLAGLLRKGGEKIGEKLKKIGQKIKNFFQKLVPQPEQ (listed as Mus musculus) [mCramp, a murine cathelicidin]
reduction of herpes simplex 1 replication (herpes simplex 1 (HSV-1)): approximately 75%
reduction of herpes simplex 2 replication (herpes simplex 2 (HSV-2)): approximately 75%
infectivity of EIAV (qualitative) [1]: consistently reduced the infectivity
infectivity of HIV (qualitative) [2]: consistently reduced the infectivity
inhibitory effect on vaccinia virus replication (vaccinia virus): no inhibitory effect

KIIHIIKKYGPTILRIIRIIG-NH2 [Ov-4, carboxy-terminal 21-mer of Ov-1]
anti-retroviral activity of carboxy-terminal peptides (qualitative) [2]: have anti-retroviral activity

KNLRRIIRKGIHIIKKYG [Ov-2 (G10)]
% helicity in Phos. Buffer [3]: 7.4%
% helicity in phosphate buffer + 40% TFE [3]: 50.4%

KNLRRIIRKIIHIIKKYG [Ov-2, KNLRRIIRKIIHIIKKYG]
inflammation, cytokine elevation, blood markers [4]: No imflammation, cytokine elevation or increase in blood markers was detected
adverse effects [5]: no adverse effects

KNLRRIIRKIIHIIKKYGPTILRIIRIIG-NH2 [Ov-1]
inhibition of HSV-1 plaque formation (herpes simplex 1 (HSV-1); 6 μg/ml peptide): 3-6 fold
inhibition of HSV-1 plaque formation (herpes simplex 1 (HSV-1); 18 μg/ml peptide): approximately 100 fold
inhibition of HSV-2 plaque formation (herpes simplex 2 (HSV-2); 6 μg/ml peptide): 3-6 fold
inhibition of HSV-2 plaque formation (herpes simplex 2 (HSV-2); 18 μg/ml peptide): approximately 100 fold
CMV plaque formation (cytomegalovirus (CMV); 5 μg/ml): Plaque formation and accompanying monolayer disintegration can be observed
CMV plaque formation (cytomegalovirus (CMV); 20 μg/ml): No plaque formation was detected
CMV plaque formation (qualitative) (cytomegalovirus (CMV); 14 days): reduced plaque formation
decrease of EIAV infectivity ([1]; 6-8 μg/ml peptide): greater than 100 fold
decrease of HIV infectivity ([2]; 6-8 μg/ml peptide): greater than 100 fold
effect on infectivity of adenovirus [6]: < 10 fold
outcome of culture (qualitative) (EIAV (MA-1); added 30 minutes or later following virus infection): resulted in infection and spread of the virus throughout the monolayer
effectiveness in inhibiting virus replication (EIAV (MA-1); added during preincubation or at the time of infection): 100%
% helicity in Phos. Buffer [3]: 43.9%
% helicity in phosphate buffer + 40% TFE [3]: 97.9%
effective LD50 for inhibiting herpes viruses and retroviruses [7]: approximately 3 μg/ml
effect on the monolayer of primary human fibroblasts [8]: little to no effect
adverse effects [9]: no adverse effects

KNLRRITRKIIHIIKKYG [Ov-2 (T7)]
% helicity in Phos. Buffer [3]: 8.0%
% helicity in phosphate buffer + 40% TFE [3]: 66.8%

LRRIIRKIIHIIKK-NH2 [Ov-3, LRRIIRKIIHIIKK-NH2]
adverse effects [5]: no adverse effects
